From BindingDB's records for doi:10.1124/jpet.104.075069 (Targacept, 2005)

Tests used:
[1] = biological target: Neuronal acetylcholine receptor subunit alpha-7 (Rattus norvegicus, UniProt Q05941)
[2] = biological target: Neuronal acetylcholine receptor subunit alpha-4 (Rattus norvegicus, UniProt P09483)
Chain of Neuronal acetylcholine receptor subunit alpha-4 (P09483 whole entry): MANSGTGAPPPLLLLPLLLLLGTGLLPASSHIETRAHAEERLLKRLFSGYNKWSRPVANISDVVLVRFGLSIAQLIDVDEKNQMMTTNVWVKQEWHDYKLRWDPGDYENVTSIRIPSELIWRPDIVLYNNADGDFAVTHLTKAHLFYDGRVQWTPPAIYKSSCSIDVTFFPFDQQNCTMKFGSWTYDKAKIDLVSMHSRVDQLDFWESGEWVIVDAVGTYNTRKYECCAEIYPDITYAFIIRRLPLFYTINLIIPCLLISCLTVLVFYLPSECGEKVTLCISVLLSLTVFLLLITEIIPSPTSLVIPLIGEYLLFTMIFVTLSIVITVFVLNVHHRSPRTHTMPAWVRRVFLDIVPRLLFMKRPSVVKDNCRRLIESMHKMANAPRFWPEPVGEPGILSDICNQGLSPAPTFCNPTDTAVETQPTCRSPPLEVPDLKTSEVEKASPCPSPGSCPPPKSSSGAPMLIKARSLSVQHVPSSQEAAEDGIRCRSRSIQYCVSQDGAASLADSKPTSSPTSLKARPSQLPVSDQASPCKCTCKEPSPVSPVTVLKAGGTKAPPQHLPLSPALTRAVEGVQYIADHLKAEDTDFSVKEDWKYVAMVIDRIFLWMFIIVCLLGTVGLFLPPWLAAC

Chain of Neuronal acetylcholine receptor subunit alpha-7 (Q05941 whole entry): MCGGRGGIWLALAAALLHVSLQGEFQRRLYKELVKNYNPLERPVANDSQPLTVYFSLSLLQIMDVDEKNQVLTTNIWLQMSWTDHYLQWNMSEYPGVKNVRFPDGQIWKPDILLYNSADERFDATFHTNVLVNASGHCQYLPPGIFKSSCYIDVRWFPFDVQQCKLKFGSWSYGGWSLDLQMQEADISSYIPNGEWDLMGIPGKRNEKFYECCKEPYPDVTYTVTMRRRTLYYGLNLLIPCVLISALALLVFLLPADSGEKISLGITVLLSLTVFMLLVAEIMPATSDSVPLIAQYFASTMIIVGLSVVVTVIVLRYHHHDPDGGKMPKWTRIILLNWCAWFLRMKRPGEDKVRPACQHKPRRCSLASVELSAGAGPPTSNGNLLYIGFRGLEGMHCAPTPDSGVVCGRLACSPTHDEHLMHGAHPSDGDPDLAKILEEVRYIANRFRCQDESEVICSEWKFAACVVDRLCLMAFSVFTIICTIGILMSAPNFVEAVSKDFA

With `COc1ccc(C=C2CCCN=C2c2cccnc2)c(OC)c1` [CAS_156223-05-1] the Ki [1] was 596 nM and the Ki [2] was 278 nM.

For `c1cncc(C2CC3CCN2CC3)c1` (stereo not drawn) [TC-2429], the Ki [1] was 12.4 nM and the Ki [2] was 1 nM.

With `CNC(=O)OCC[N+](C)(C)C` [CAS_14721-69-8] the Ki [1] was 4350 nM and the Ki [2] was 2.51 nM.

Molecule `c1cncc(OCC2CCN2)c1` (stereo not drawn) [A-85380] has a Ki [1] of 54.9 nM.

With `CCN1CC2(COC(=O)c3ccccc3-n3c(O)cc(C)c3O)CCC(OC)C34C5CC6C(OC)CC(O)(C5C6OC)C(O)(C(OC)C23)C14` (stereo not drawn) [CAS_21019-30-7] the Ki [2] was 585 nM.

In the case of `C#Cc1cncc(C2CCCN2C)c1` (stereo not drawn) [NSC_6442277], the Ki [1] is reported as 14400 nM and the Ki [2] is reported as 0.5 nM.

With `COC1CC=C2CCN3CCC4=C(CC(=O)OC4)C23C1` (stereo not drawn) [NSC_31762] the Ki [1] was 7700 nM and the Ki [2] was 24.6 nM.

Molecule `O=c1cccc2n1CC1CNCC2C1` (stereo not drawn) [CAS_485-35-8] has a Ki [1] of 1140 nM and a Ki [2] of 0.2 nM.

`C[N+](C)(C)CCOC(N)=O` [(2-Hydroxyethyl)trimethyl ammonium chloride carbamate] was tested, and the Ki [1] was 9920 nM and the Ki [2] was 66.4 nM.

Molecule `Cc1cc(C2CCCN2C)on1` (stereo not drawn) [ABT-418] has a Ki [1] of 1970 nM and a Ki [2] of 4.69 nM.
